10 molecules from paper PMC6571560, “Aldose Reductase, Protein Glycation Inhibitory and Antioxidant of Peruvian Medicinal Plants: The Case of Tanacetum parthenium L. and Its Constituents” (Molecules, 2019) can be followed below.

Assay [1] relates to advanced glycation end products (AGEs) formation. Nature of the assay: Bovine serum albumin-methylglyoxal assay for AGEs formation. In kind it is biochemical. As to conditions: for IC50: table head prints no unit, μM. The procedure: BSA (50 mg/mL) was incubated with methylglyoxal (100 mM) in sodium phosphate buffer (0.1 M, pH 7.4) in the presence of various concentrations of the compounds (including a control) at 37 °C for 24 h. Then, the fluorescence intensity was measured at an excitation wavelength of 355 nm and an emission wavelength of 460 nm with a luminescence spectrometer (LS50B, Perkin–Elmer Ltd., Buckinghamshire, UK). […] All reagents and samples were sterilized by filtration through […] membrane filters.

In assay [2] the test system is sorbitol accumulation in rat lens. The assay can be described thus: Lens culture and sorbitol accumulation in rat lens. In kind it is cell-based. As to conditions: compound 5 μg/mL, mean ± SD (n = 3); for Sorbitol Content (mg)/lens Wet Weight (g): rat lens cultured 6 d in 30 mM glucose; for inhibition at 5 µg/mL: rat lens cultured in 30 mM glucose. The procedure:
Lenses isolated from 10-week-old Sprague-Dawley rats were cultured for 6 d in TC-199 medium that contained 15% fetal bovine serum, 100 units/mL penicillin, and 0.1 mg/mL streptomycin, under sterile conditions and an atmosphere of 5% CO2 and 95% air at 37 °C. The lenses were divided into three groups and cultured in medium containing 30 mM glucose and active compounds. Each lens was placed in a well containing 2.0 mL of medium. Sorbitol was determined by HPLC after derivatization by reaction with benzoic acid to a form of a fluorescent compound [37].

The next assay in a line: DPPH-HPLC assay. Conditions: peak in TP extract after reaction with DPPH, HPLC 254 nm. The procedure:
The antioxidant compounds from TP were profiled with a DPPH-HPLC assay. TP (90 µL; 10.0 mg/mL) was mixed with 540 µL of DPPH solution (0.32 mM), and the mixed solution was then incubated at 37 °C for 20 min in a dark room. The solution was then filtered through a 0.45 µm membrane filter and then subjected to HPLC analysis. The HPLC conditions were the same as those described in the HPLC analysis section.

Assay [3] has as its target T1, human recombinant aldose reductase (HRAR) (Homo sapiens, UniProt P15121).
T1 construct: purchased Wako Pure Chemical Industries (Osaka, Japan)
Nature of the assay: Human recombinant aldose reductase ultrafiltration HPLC assay. The format is binding. As to conditions: peak in TP extract (0.1 mg/mL) incubated with 3.9 μM HRAR. Here is the method:
The inhibitory compounds of HRAR from TP were profiled by an AR ultrafiltration assay. Specifically, TP (at a final concentration of 0.1 mg/mL) was incubated with 0.6 M ammonium sulfate and 3.9 μM HRAR in a total volume of 300 μL at 37 °C for 30 min. Then, the incubated mixture was filtered by using a Microcon YM-10 centrifugal filter unit by centrifugation at 5167× g for 30 min at room temperature. The filtrate was subsequently analyzed by using the methods mentioned in the HPLC analysis section. A sample incubated without HRAR was used as a control. The relative binding affinity of the inhibitors from TP toward HRAR was defined as the “binding degree” (BD), which can be calculated as follows: BD (%) = (Aa − Ab)/Aa × 100, in which Aa and Ab are the peak areas of a compound without and with HRAR in the HPLC chromatograms, respectively.

In assay [4] the target is T2, rat lens aldose reductase (RLAR) (Rattus norvegicus, UniProt P07943).
T2 construct: The supernatant was collected and used as the RLAR; from tissue; host or cells: lenses of Sprague-Dawley rats (homogenate supernatant)
The assay can be described thus: Rat lens aldose reductase (RLAR) inhibition, NADPH absorbance decrease at 340 nm. The format is biochemical. As to conditions: for IC50: mean ± SEM, three independent experiments in duplicate. The procedure: Crude RLAR was prepared as follows: lenses were removed from Sprague-Dawley rats (Weighing 250–280 g) and frozen at −70 °C until use. Non-cataractous transparent lenses were pooled, and a homogenate was prepared in 0.1 M phosphate-buffered saline (pH 6.2). The RLAR homogenate was then centrifuged at 10,000× gfor 20 min at 4 °C in a refrigerated centrifuge. The supernatant was collected and used as the RLAR [35]. This experiment was approved by the University of Hallym Animal Care and Use Committee (Registration Number: Hallym R2016-60). All of the procedures were conducted in accordance with the ‘Guide for Care and Use of Laboratory Animals’, published by the National Institutes of Health.
A total of 531 μL of 0.1 M potassium buffer (pH 7.0), 90 μL of NADPH solution (1.6 mM in potassium buffer), 90 μL of RLAR homogenate (6.5 U/mg), 90 μL of ammonium sulfate solution (4 M in potassium buffer), and 90 μL of DL-glyceraldehyde (25 mM in potassium buffer) were mixed with 9 μL of different concentrations of samples (1–0.1 mg/mL in dimethylsulfoxide (DMSO), Less than 1% in total mixture) in a cuvette, and the activity of RLAR was assessed spectrophotometrically by measuring the decrease in NADPH absorbance at 340 nm for 3 min using a spectrophotometer (SECOMAM, Ales Cedex, France).

Assay [5] can be described thus: DPPH radical scavenging capacity. Here is the method:
The DPPH radical scavenging capacity assay method of Yin et al. was used. DPPH (0.32 mM) was diluted with MeOH, and this solution (180 µL) was mixed with 30 µL of the sample at each concentration. After 20 min of incubation in a darkroom, the absorbance at 570 nm was recorded on a microplate reader (EL800 Universal Microplate reader, Bio-Tek Instruments, Winooski, VT, USA). DPPH radical scavenging activity was expressed as the percentage inhibition (%) of DPPH in the aforementioned assay system and was calculated as (1 – B/A) × 100, in which A and B are the activities of DPPH without and with the test material, respectively.

Regarding `N=C(N)NN` [Aminoguanidine, aminoguanidine, reference compound], the “AGEs Inhibition (%)” value came out at 20.75% in assay [1] (20 μg/mL), 39.94% in assay [1] (100 μg/mL) and 75.32% in assay [1] (200 μg/mL). Moreover, in assay [1] (mean ± SEM), the “AGEs IC50” value stood at 121.96 ± 5.10 µg/mL.
For the molecule `COc1cc(/C=C/C(=O)O)ccc1O` [Compound 1, ferulic acid], in assay [2], the “Sorbitol Content (mg)/lens Wet Weight (g)” value (shortened to “Sorbitol Content”) is recorded as 0.29 ± 0.03 mg/g and 5 µg/mL produced 80.3 ± 2.38% inhibition. In “DPPH-HPLC assay”, the “DPPH PAR (%), peak area reduction” value came out at 23.53%. Moreover, in assay [3], the “HRAR binding degree (%)” value is 27.08%. Besides, in assay [4], the IC50 lay within 1.11 to 3.2 µM.
`O=c1cc(-c2ccc(O)cc2)oc2cc(O)cc(O)c12` [Compound 2, apigenin]: in assay [2], the “Sorbitol Content” value is 0.19 ± 0.06 mg/g and the inhibition at 5 µg/mL worked out at 87.1 ± 2.37%. Moreover, the “DPPH PAR (%), peak area reduction” value in the assay “DPPH-HPLC assay” is listed as 11.28%. In assay [3], the “HRAR binding degree (%)” value came out at 15.00%. For the same molecule, the “AGEs Inhibition (%)” value in assay [1] (20 μg/mL) was 8.14%. The IC50 in assay [1] is above 55 µM. The same molecule displayed an IC50 in assay [4] of 1.11 to 3.2 µM.
In the case of `O=c1cc(-c2ccc(O)c(O)c2)oc2cc(O[C@@H]3O[C@H](CO)[C@@H](O)[C@H](O)[C@H]3O)cc(O)c12` [Compound 3, luteolin-7-O-glucoside], in assay [2], the “Sorbitol Content” value stood at 0.07 ± 0.01 mg/g and the inhibition at 5 µg/mL was 95.2 ± 5.97%. In the assay “DPPH-HPLC assay”, the “DPPH PAR (%), peak area reduction” value is recorded as 16.85%. Besides, the “HRAR binding degree (%)” value in assay [3] came out at 26.58%. Besides, the “AGEs inhibition potency relative to aminoguanidine (times higher)” value in assay [1] (ratio of IC50 values) came out at 32.23 times. This molecule also gave an IC50 in assay [4] of 1.11 to 3.2 µM.
As for `O=c1cc(-c2ccc(O)c(O)c2)oc2cc(O)cc(O)c12` [Compound 4, luteolin], in assay [2], the “Sorbitol Content” value is 0.12 ± 0.02 mg/g and the inhibition at 5 µg/mL worked out at 91.8 ± 5.23%. The “DPPH PAR (%), peak area reduction” value in “DPPH-HPLC assay” came out at 29.36%. For the same molecule, in assay [3], the “HRAR binding degree (%)” value was determined as 38.02%.
Regarding `COc1cc2oc(-c3ccc(O)c(O)c3)c(OC)c(=O)c2c(O)c1OC` [Compound 5, chrysosplenol], the “Sorbitol Content” value in assay [2] was found to be 0.26 ± 0.03 mg/g. Moreover, in assay [2], the inhibition at 5 µg/mL was 82.3 ± 2.39%. The IC50 in assay [5] (mean ± SEM, listed as Chrysosplenol (5)) is above 250 µM; in assay [1], above 55 µM; in assay [4], 1.11 to 3.2 µM. Also, the “DPPH PAR (%), peak area reduction” value in the assay “DPPH-HPLC assay” is on record as 7.19%. Also, the “HRAR binding degree (%)” value in assay [3] is listed as 25.54%. Further, the “AGEs Inhibition (%)” value in assay [1] (20 μg/mL) amounted to 5.38%.
Turning to `O=c1c(O)c(-c2ccc(O)cc2)oc2cc(O)cc(O)c12` [Compound 6, kaempferol], in assay [2], the “Sorbitol Content” value is 0.03 ± 0.00 mg/g and at 5 µg/mL the inhibition was 98 ± 6.31%. Further, the “DPPH PAR (%), peak area reduction” value in the assay “DPPH-HPLC assay” is recorded as 13.97%. Moreover, the “HRAR binding degree (%)” value in assay [3] worked out at 24.29%. For the same molecule, in assay [1], the IC50 was above 55 µM. The IC50 in assay [4] was 1.11 to 3.2 µM.
As to `COc1ccc(-c2oc3cc(O)c(OC)c(O)c3c(=O)c2OC)cc1` [Compound 7, santin], the results for the half-maximal inhibitory concentration (IC50) in assay [5] (mean ± SEM), in assay [1] and in assay [4] were above 208 µM, above 55 µM and above 28 µM, respectively. For the same molecule, in “DPPH-HPLC assay”, the “DPPH PAR (%), peak area reduction” value came to 0%. Also, the “HRAR binding degree (%)” value in assay [3] amounted to 0%. Further, the “AGEs Inhibition (%)” value in assay [1] (20 μg/mL) was 13.15%.
Turning to `O=C1O[C@H]([C@@H](O)CO)C(O)=C1O` [L-ascorbic acid], the “DPPH Inhibition (%)” value in assay [5] (3 μg/mL) is reported as 33.71%; in assay [5] (7.5 μg/mL), 58.34%; in assay [5] (15 μg/mL) it was 97.23%. Further, in assay [5] (mean ± SEM), the “DPPH IC50” value was found to be 6.02 ± 0.37 µg/mL.
For `O=c1c(O)c(-c2ccc(O)c(O)c2)oc2cc(O)cc(O)c12` [Quercetin, quercetin, reference compound], in assay [2], the “Sorbitol Content” value is listed as 0.21 ± 0.02 mg/g and the inhibition at 5 µg/mL was 85.7 ± 5.71%. Moreover, in assay [4] (0.5 μg/mL), the inhibition at 0.5 µg/mL amounted to 23.6%. The molecule also yielded an inhibition at 1 µg/mL in assay [4] (1 μg/mL) of 44.8%. Besides, the inhibition at 10 µg/mL in assay [4] (10 μg/mL) is 81.3%.
